In ChEMBL document CHEMBL1158007, “Steroidal glycosides from the bulbs of Allium jesdianum” (J Nat Prod, 1999):

Legend:
Format in all cases: functional
CCRF-CEM = assay: Growth inhibition of human CCRF-CEM cells after 72 hrs by MTT assay
K562 = assay: Growth inhibition of human K-562 cells after 72 hrs by MTT assay; conditions: K562, 72 h, read-out: LC50 (the source's name)
RPMI-8226 = assay: Growth inhibition of human RPMI 8226 cells after 72 hrs by MTT assay; conditions: RPMI-8226, 72 h
A549 = assay: Growth inhibition of human A549 cells after 72 hrs by MTT assay; conditions: A549, 72 h
EKVX = assay: Growth inhibition of human EKVX cells after 72 hrs by MTT assay
HOP-62 = assay: Growth inhibition of human HOP-62 cells after 72 hrs by MTT assay; conditions: HOP-62, 72 h
NCI-H23 = assay: Growth inhibition of human NCI-H23 cells after 72 hrs by MTT assay; conditions: NCI-H23, 72 h
NCI-H322M = assay: Growth inhibition of human NCI-H322M cells after 72 hrs by MTT assay
NCI-H460 = assay: Growth inhibition of human NCI-H460 cells after 72 hrs by MTT assay; conditions: NCI-H460, 72 h
COLO 205 = assay: Growth inhibition of human COLO205 cells after 72 hrs by MTT assay; conditions: COLO 205, 72 h
HCC 2998 = assay: Growth inhibition of human HCC2998 cells after 72 hrs by MTT assay; conditions: HCC 2998, 72 h
[1] = Growth inhibition of human HCT 116 cells after 72 hrs by MTT assay; conditions: HCT-116, 72 h
HT-29 = assay: Growth inhibition of human HT-29 cells after 72 hrs by MTT assay; conditions: HT-29, 72 h
SW-620 = assay: Growth inhibition of human SW620 cells after 72 hrs by MTT assay; conditions: SW-620, 72 h
SF-295 = assay: Growth inhibition of human SF-295 cells after 72 hrs by MTT assay; conditions: SF-295, 72 h
SNB-19 = assay: Growth inhibition of human SNB-19 cells after 72 hrs by MTT assay; conditions: SNB-19, 72 h
SNB-75 = assay: Growth inhibition of human SNB-75 cells after 72 hrs by MTT assay; conditions: SNB-75, 72 h
LOX IMVI = assay: Growth inhibition of human LOX IMVI cells after 72 hrs by MTT assay
[2] = Growth inhibition of human SK MEL28 cells after 72 hrs by MTT assay; conditions: SK-MEL-28, 72 h
IGROV-1 = assay: Growth inhibition of human IGROV1 cells after 72 hrs by MTT assay; conditions: IGROV-1, 72 h
OVCAR-3 = assay: Growth inhibition of human OVCAR-3 cells after 72 hrs by MTT assay; conditions: OVCAR-3, 72 h
OVCAR-5 = assay: Growth inhibition of human OVCAR5 cells after 72 hrs by MTT assay; conditions: OVCAR-5, 72 h
OVCAR-8 = assay: Growth inhibition of human OVCAR8 cells after 72 hrs by MTT assay; conditions: OVCAR-8, 72 h
SK-OV-3 = assay: Growth inhibition of human SKOV3 cells after 72 hrs by MTT assay; conditions: SK-OV-3, 72 h
ACHN = assay: Growth inhibition of human ACHN cells after 72 hrs by MTT assay
CAKI-1 = assay: Growth inhibition of human Caki-1 cells after 72 hrs by MTT assay; conditions: CAKI-1, 72 h
PC-3 = assay: Growth inhibition of human PC-3 cells after 72 hrs by MTT assay; conditions: PC-3, 72 h
DU-145 = assay: Growth inhibition of human DU-145 cells after 72 hrs by MTT assay; conditions: DU-145, 72 h
NCI/ADR-RES = assay: Growth inhibition of human NCI/ADR-RES cells after 72 hrs by MTT assay
MDA-MB-231 = assay: Growth inhibition of human MDA-MB-231cells after 72 hrs by MTT assay; conditions: MDA-MB-231, 72 h
[3] = Growth inhibition of human Hs 578T cells after 72 hrs by MTT assay
MDA-MB-435 = assay: Growth inhibition of human MDA-MB-435 cells after 72 hrs by MTT assay; conditions: MDA-MB-435, 72 h
MDA-N = assay: Growth inhibition of human MDA-N cells after 72 hrs by MTT assay
T47D = assay: Growth inhibition of human T47D cells after 72 hrs by MTT assay
[4] = read-out: LC50 (the source's name)

## C[C@@H]1CC[C@@]2(OC1)O[C@H]1C[C@H]3[C@@H]4CC[C@H]5C[C@@H](O[C@@H]6O[C@H](CO)[C@H](O[C@@H]7O[C@H](CO)[C@@H](O)[C@H](O[C@@H]8OC[C@@H](O)[C@H](O)[C@H]8O)[C@H]7O[C@@H]7O[C@H](CO)[C@@H](O)[C@H](O)[C@H]7O)[C@H](O)[C@H]6O)[C@H](O)C[C@]5(C)[C@H]4CC[C@]3(C)[C@H]1[C@@H]2C
CCRF-CEM
  GI50: 0.25 µM
  TGI: 0.55 µM
CCRF-CEM; [4]
  CC50: 2 µM
K562
  CC50: < 100 µM
RPMI-8226
  GI50: 0.79 µM
  TGI: 23 µM
RPMI-8226; [4]
  CC50: 81 µM
A549
  GI50: 0.35 µM
A549; [4]
  CC50: < 100 µM
EKVX
  GI50: 11 µM
  TGI: 27 µM
EKVX; [4]
  CC50: 63 µM
HOP-62
  GI50: 1.2 µM
  TGI: 2.8 µM
HOP-62; [4]
  CC50: 6.2 µM
NCI-H23
  GI50: 2 µM
  TGI: 8.7 µM
NCI-H23; [4]
  CC50: 36 µM
NCI-H322M
  GI50: 12 µM
  TGI: 26 µM
NCI-H322M; [4]
  CC50: 55 µM
NCI-H460
  GI50: 1.3 µM
  TGI: 4.2 µM
NCI-H460; [4]
  CC50: 16 µM
COLO 205
  GI50: 1.4 µM
  TGI: 32 µM
COLO 205; [4]
  CC50: < 100 µM
HCC 2998
  GI50: 12 µM
  TGI: 25 µM
HCC 2998; [4]
  CC50: 50 µM
[1]
  GI50: 3.9 µM
  TGI: 18 µM
[1]; [4]
  CC50: 81 µM
HT-29
  GI50: 1.1 µM
  TGI: 3.1 µM
SW-620
  GI50: 1.7 µM
  TGI: 19 µM
SW-620; [4]
  CC50: 78 µM
SF-295
  GI50: 12 µM
  TGI: 49 µM
SF-295; [4]
  CC50: < 100 µM
SNB-19
  GI50: 12 µM
  TGI: 27 µM
SNB-19; [4]
  CC50: 60 µM
SNB-75
  GI50: 14 µM
  TGI: 28 µM
SNB-75; [4]
  CC50: 59 µM
LOX IMVI
  GI50: 1.4 µM
  TGI: 7.9 µM
[2]
  GI50: 15 µM
  TGI: 33 µM
[2]; [4]
  CC50: 71 µM
IGROV-1
  GI50: 3.7 µM
  TGI: 17 µM
IGROV-1; [4]
  CC50: 48 µM
OVCAR-3
  GI50: 2.6 µM
  TGI: 9.1 µM
OVCAR-3; [4]
  CC50: 35 µM
OVCAR-5
  GI50: 5 µM
  TGI: 20 µM
OVCAR-5; [4]
  CC50: 59 µM
OVCAR-8
  GI50: 2.5 µM
  TGI: 6.3 µM
OVCAR-8; [4]
  CC50: 47 µM
SK-OV-3
  GI50: 13 µM
  TGI: 41 µM
SK-OV-3; [4]
  CC50: < 100 µM
ACHN
  GI50: 2.8 µM
  TGI: 12 µM
ACHN; [4]
  CC50: 38 µM
CAKI-1
  GI50: 1.4 µM
  TGI: 18 µM
CAKI-1; [4]
  CC50: < 100 µM
PC-3
  GI50: 3.1 µM
  TGI: 15 µM
PC-3; [4]
  CC50: 41 µM
DU-145
  GI50: 2.4 µM
  TGI: 14 µM
DU-145; [4]
  CC50: 54 µM
NCI/ADR-RES
  GI50: 2.8 µM
  TGI: 12 µM
NCI/ADR-RES; [4]
  CC50: 46 µM
MDA-MB-231
  GI50: 1.8 µM
  TGI: 13 µM
MDA-MB-231; [4]
  CC50: 87 µM
[3]
  GI50: 17 µM
  TGI: 32 µM
[3]; [4]
  CC50: 63 µM
MDA-MB-435
  GI50: 11 µM
  TGI: 26 µM
MDA-MB-435; [4]
  CC50: 66 µM
MDA-N
  GI50: 11 µM
  TGI: 28 µM
MDA-N; [4]
  CC50: 74 µM
T47D
  GI50: 5.4 µM
  TGI: 28 µM
T47D; [4]
  CC50: < 100 µM
